Laboratory results reported in PubChem BioAssay (NCI).
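Cells were grown in 96-well plates and exposed to each compound for 48 hours at five concentrations; endpoints were interpolated linearly between bracketing concentrations, or set to the highest concentration if not reached. The concentration for 50% growth inhibition is given as GI50. TGI: concentration producing complete growth inhibition.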

Legend:
Assay in all cases: NCI-60 cell line screen, 48 h
786-0 renal = test system: 786-0 renal
A498 renal = test system: A498 renal
A549 NSCLC = test system: A549 NSCLC
ACHN renal = test system: ACHN renal
BT-549 breast = test system: BT-549 breast
CAKI-1 renal = test system: CAKI-1 renal
CCRF-CEM leukemia = test system: CCRF-CEM leukemia
COLO 205 colon = test system: COLO 205 colon
DU-145 prostate = test system: DU-145 prostate
EKVX NSCLC = test system: EKVX NSCLC
HCC-2998 colon = test system: HCC-2998 colon
HCT-116 colon = test system: HCT-116 colon
HCT-15 colon = test system: HCT-15 colon
HL-60(TB) leukemia = test system: HL-60(TB) leukemia
HOP-62 NSCLC = test system: HOP-62 NSCLC
HOP-92 NSCLC = test system: HOP-92 NSCLC
HS 578T breast = test system: HS 578T breast
HT29 colon = test system: HT29 colon
IGROV1 ovarian = test system: IGROV1 ovarian
K-562 leukemia = test system: K-562 leukemia
KM12 colon = test system: KM12 colon
LOX IMVI melanoma = test system: LOX IMVI melanoma
M14 melanoma = test system: M14 melanoma
MALME-3M melanoma = test system: MALME-3M melanoma
MCF7 breast = test system: MCF7 breast
MDA-MB-231 breast = test system: MDA-MB-231 breast
MDA-MB-435 = test system: MDA-MB-435
MOLT-4 leukemia = test system: MOLT-4 leukemia
NCI-H226 lung = test system: NCI-H226 lung
NCI-H23 lung = test system: NCI-H23 lung
NCI-H460 lung = test system: NCI-H460 lung
NCI-H522 lung = test system: NCI-H522 lung
NCI/ADR-RES ovarian = test system: NCI/ADR-RES ovarian
OVCAR-4 ovarian = test system: OVCAR-4 ovarian
OVCAR-5 ovarian = test system: OVCAR-5 ovarian
OVCAR-8 ovarian = test system: OVCAR-8 ovarian
PC-3 prostate = test system: PC-3 prostate
RPMI-8226 leukemia = test system: RPMI-8226 leukemia
RXF 393 renal = test system: RXF 393 renal
SF-268 CNS = test system: SF-268 CNS
SF-295 CNS = test system: SF-295 CNS
SF-539 CNS = test system: SF-539 CNS
SK-MEL-2 melanoma = test system: SK-MEL-2 melanoma
SK-MEL-28 melanoma = test system: SK-MEL-28 melanoma
SK-MEL-5 melanoma = test system: SK-MEL-5 melanoma
SK-OV-3 ovarian = test system: SK-OV-3 ovarian
SN12C renal = test system: SN12C renal
SNB-19 CNS = test system: SNB-19 CNS
SNB-75 CNS = test system: SNB-75 CNS
SR leukemia = test system: SR leukemia
SW-620 colon = test system: SW-620 colon
T-47D breast = test system: T-47D breast
TK-10 renal = test system: TK-10 renal
U251 CNS = test system: U251 CNS
UACC-257 melanoma = test system: UACC-257 melanoma
UACC-62 melanoma = test system: UACC-62 melanoma
UO-31 renal = test system: UO-31 renal

O=C(CCCCCCN1CC(=O)N2[C@@H](c3cccc(Br)c3)c3[nH]c4ccccc4c3C[C@H]2C1=O)NO
GI50 (786-0 renal): 3.86 µM
TGI (786-0 renal): 11.1 µM
GI50 (A498 renal): 2.75 µM
TGI (A498 renal): 6.31 µM
GI50 (A549 NSCLC): 4.83 µM
TGI (A549 NSCLC): > 16.7 µM
GI50 (ACHN renal): 3.85 µM
TGI (ACHN renal): 14.9 µM
GI50 (BT-549 breast): 3.81 µM
TGI (BT-549 breast): 16.1 µM
GI50 (CAKI-1 renal): 2.6 µM
TGI (CAKI-1 renal): 15 µM
GI50 (CCRF-CEM leukemia): 0.709 µM
TGI (CCRF-CEM leukemia): > 16.7 µM
GI50 (COLO 205 colon): 2.28 µM
TGI (COLO 205 colon): 8.36 µM
GI50 (DU-145 prostate): 3.13 µM
TGI (DU-145 prostate): 12.3 µM
GI50 (EKVX NSCLC): 4.33 µM
TGI (EKVX NSCLC): > 16.7 µM
GI50 (HCC-2998 colon): 2.66 µM
TGI (HCC-2998 colon): 5.81 µM
GI50 (HCT-116 colon): 1.05 µM
TGI (HCT-116 colon): 6.46 µM
GI50 (HCT-15 colon): 13 µM
TGI (HCT-15 colon): > 16.7 µM
GI50 (HL-60(TB) leukemia): 1.2 µM
TGI (HL-60(TB) leukemia): 6.29 µM
GI50 (HOP-62 NSCLC): 2.51 µM
TGI (HOP-62 NSCLC): 7.59 µM
GI50 (HOP-92 NSCLC): 1.84 µM
TGI (HOP-92 NSCLC): 5.78 µM
GI50 (HS 578T breast): 2.25 µM
TGI (HS 578T breast): 12.1 µM
GI50 (HT29 colon): 2.23 µM
TGI (HT29 colon): > 16.7 µM
GI50 (IGROV1 ovarian): 0.403 µM
TGI (IGROV1 ovarian): 1.11 µM
GI50 (K-562 leukemia): 1.37 µM
TGI (K-562 leukemia): > 16.7 µM
GI50 (KM12 colon): 2.95 µM
TGI (KM12 colon): 6.65 µM
GI50 (LOX IMVI melanoma): 0.203 µM
TGI (LOX IMVI melanoma): 0.431 µM
GI50 (M14 melanoma): 2.81 µM
TGI (M14 melanoma): 14.3 µM
GI50 (MALME-3M melanoma): 0.922 µM
TGI (MALME-3M melanoma): 7.45 µM
GI50 (MCF7 breast): 1.88 µM
TGI (MCF7 breast): 7.19 µM
GI50 (MDA-MB-231 breast): 3.25 µM
TGI (MDA-MB-231 breast): 11.5 µM
GI50 (MDA-MB-435): 2.27 µM
TGI (MDA-MB-435): 7.29 µM
GI50 (MOLT-4 leukemia): 0.933 µM
TGI (MOLT-4 leukemia): 10.4 µM
GI50 (NCI-H226 lung): 5.01 µM
TGI (NCI-H226 lung): > 16.7 µM
GI50 (NCI-H23 lung): 3.08 µM
TGI (NCI-H23 lung): 9.78 µM
GI50 (NCI-H460 lung): 2.43 µM
TGI (NCI-H460 lung): 11.5 µM
GI50 (NCI-H522 lung): 0.8 µM
TGI (NCI-H522 lung): 5.77 µM
GI50 (NCI/ADR-RES ovarian): > 16.7 µM
TGI (NCI/ADR-RES ovarian): > 16.7 µM
GI50 (OVCAR-4 ovarian): 3.17 µM
TGI (OVCAR-4 ovarian): > 16.7 µM
GI50 (OVCAR-5 ovarian): 3.37 µM
TGI (OVCAR-5 ovarian): > 16.7 µM
GI50 (OVCAR-8 ovarian): 2.32 µM
TGI (OVCAR-8 ovarian): > 16.7 µM
GI50 (PC-3 prostate): 2.23 µM
TGI (PC-3 prostate): > 16.7 µM
GI50 (RPMI-8226 leukemia): 0.982 µM
TGI (RPMI-8226 leukemia): 11.6 µM
GI50 (RXF 393 renal): 1.51 µM
TGI (RXF 393 renal): 5.21 µM
GI50 (SF-268 CNS): 3.44 µM
TGI (SF-268 CNS): 9.8 µM
GI50 (SF-295 CNS): 2.57 µM
TGI (SF-295 CNS): 6.58 µM
GI50 (SF-539 CNS): 2.89 µM
TGI (SF-539 CNS): 10.5 µM
GI50 (SK-MEL-2 melanoma): 2.77 µM
TGI (SK-MEL-2 melanoma): 12.7 µM
GI50 (SK-MEL-28 melanoma): 2.51 µM
TGI (SK-MEL-28 melanoma): 10.5 µM
GI50 (SK-MEL-5 melanoma): 2.6 µM
TGI (SK-MEL-5 melanoma): 9.06 µM
GI50 (SK-OV-3 ovarian): 3.23 µM
TGI (SK-OV-3 ovarian): 9.27 µM
GI50 (SN12C renal): 3.9 µM
TGI (SN12C renal): > 16.7 µM
GI50 (SNB-19 CNS): 3.79 µM
TGI (SNB-19 CNS): > 16.7 µM
GI50 (SNB-75 CNS): 0.707 µM
TGI (SNB-75 CNS): 9.15 µM
GI50 (SR leukemia): 0.554 µM
TGI (SR leukemia): 8.71 µM
GI50 (SW-620 colon): 2.24 µM
TGI (SW-620 colon): 14.7 µM
GI50 (T-47D breast): 1.65 µM
TGI (T-47D breast): 12.8 µM
GI50 (TK-10 renal): 2.98 µM
TGI (TK-10 renal): 15.1 µM
GI50 (U251 CNS): 2.78 µM
TGI (U251 CNS): 10.7 µM
GI50 (UACC-257 melanoma): 2.37 µM
TGI (UACC-257 melanoma): > 16.7 µM
GI50 (UACC-62 melanoma): 1.78 µM
TGI (UACC-62 melanoma): 5.38 µM
GI50 (UO-31 renal): 3.3 µM
TGI (UO-31 renal): > 16.7 µM
